Test results reported in ChEMBL document CHEMBL1131511, “Potent HIV protease inhibitors incorporating high-affinity P2-ligands and (R)-(hydroxyethylamino)sulfonamide isostere” (Bioorg Med Chem Lett, 1998).

These compounds were tested against Human immunodeficiency virus type 1 protease (Human immunodeficiency virus 1, UniProt Q72874) (assay: Inhibitory activity against HIV-1 protease). Settings: not given.
Compound CC(C)CN(C[C@@H](O)[C@H](Cc1ccccc1)NC(=O)O[C@@H]1CCS(=O)(=O)[C@@H]1C(C)C)S(=O)(=O)c1ccc(N)cc1 has a Ki of 1.5 nM. COc1ccc(S(=O)(=O)N(CC(C)C)C[C@@H](O)[C@H](Cc2ccccc2)NC(=O)O[C@H]2CCOC2)cc1 showed a Ki of 1.5 nM. COc1ccc(S(=O)(=O)N(CC(C)C)C[C@@H](O)[C@H](Cc2ccccc2)NC(=O)O[C@@H]2CO[C@@H]3OCCC[C@@H]32)cc1 showed a Ki of 2.2 nM. With Cc1ccc(S(=O)(=O)N(CC(C)C)C[C@@H](O)[C@H](Cc2ccccc2)NC(=O)O[C@H]2CO[C@H]3OCC[C@H]32)cc1 the Ki was 1.2 nM. CC(C)CN(C[C@@H](O)[C@H](Cc1ccccc1)NC(=O)O[C@H]1CCOC1)S(=O)(=O)c1ccc(N)cc1 gave a Ki of 1.6 nM. Compound COc1ccc(S(=O)(=O)N(CC(C)C)C[C@@H](O)[C@H](Cc2ccccc2)NC(=O)O[C@H]2CCS(=O)(=O)C2)cc1 has a Ki of 1.2 nM. In the case of COc1ccc(S(=O)(=O)N(CC(C)C)C[C@@H](O)[C@H](Cc2ccccc2)NC(=O)O[C@H]2CO[C@H]3OCC[C@H]32)cc1, the Ki is reported as 1.1 nM. For COc1ccc(S(=O)(=O)N(CC(C)C)C[C@@H](O)[C@H](Cc2ccccc2)NC(=O)O[C@@H]2CCS(=O)(=O)[C@@H]2C(C)C)cc1, the Ki was 1.4 nM. Work on COc1ccc(S(=O)(=O)N(CC(C)C)C[C@@H](O)[C@H](Cc2ccccc2)NC(=O)O[C@H]2CCSC2)cc1 yielded a Ki of 2.5 nM.

What follows are compounds tested on MT4 (assay: Compound was tested for the inhibition of HIV-1 in MT-4 human T-lymphoid cells infected with IIIB isolate). Settings: read-out: ID50 (the source's name).
Type: functional
In the case of CC(C)CN(C[C@@H](O)[C@H](Cc1ccccc1)NC(=O)O[C@@H]1CCS(=O)(=O)[C@@H]1C(C)C)S(=O)(=O)c1ccc(N)cc1, the IC50 is reported as 40 nM. In the case of COc1ccc(S(=O)(=O)N(CC(C)C)C[C@@H](O)[C@H](Cc2ccccc2)NC(=O)O[C@H]2CCOC2)cc1, the IC50 is reported as 12 nM. COc1ccc(S(=O)(=O)N(CC(C)C)C[C@@H](O)[C@H](Cc2ccccc2)NC(=O)O[C@@H]2CO[C@@H]3OCCC[C@@H]32)cc1 gave an IC50 of 4.5 nM. In the case of CC(C)CN(C[C@@H](O)[C@H](Cc1ccccc1)NC(=O)O[C@H]1CO[C@H]2OCC[C@H]21)S(=O)(=O)c1ccc(N)cc1, the IC50 is reported as 4.5 nM. In the case of Cc1ccc(S(=O)(=O)N(CC(C)C)C[C@@H](O)[C@H](Cc2ccccc2)NC(=O)O[C@H]2CO[C@H]3OCC[C@H]32)cc1, the IC50 is reported as 3.5 nM. Compound CC(C)CN(C[C@@H](O)[C@H](Cc1ccccc1)NC(=O)O[C@H]1CCOC1)S(=O)(=O)c1ccc(N)cc1 has an IC50 of 15 nM. Compound COc1ccc(S(=O)(=O)N(CC(C)C)C[C@@H](O)[C@H](Cc2ccccc2)NC(=O)O[C@H]2CCS(=O)(=O)C2)cc1 has an IC50 of 19 nM. COc1ccc(S(=O)(=O)N(CC(C)C)C[C@@H](O)[C@H](Cc2ccccc2)NC(=O)O[C@H]2CO[C@H]3OCC[C@H]32)cc1 showed an IC50 of 1.4 nM. COc1ccc(S(=O)(=O)N(CC(C)C)C[C@@H](O)[C@H](Cc2ccccc2)NC(=O)O[C@@H]2CCS(=O)(=O)[C@@H]2C(C)C)cc1 was tested, and the IC50 was 18 nM. Work on COc1ccc(S(=O)(=O)N(CC(C)C)C[C@@H](O)[C@H](Cc2ccccc2)NC(=O)O[C@H]2CCSC2)cc1 yielded an IC50 of 47 nM.
